Data from PMC10877564, “Activity of Gut-Derived Nisin-like Lantibiotics against Human Gut Pathogens and Commensals” (ACS Chemical Biology, 2024).
Positions of bridges follow the written chain, without caps; N, C: chain ends. Non-standard residues stand in square brackets, D forms with d. No end group written: not given here. Abu = CC[C@H](N)C(=O)O; Dhb = C/C=C(\N)C(=O)O; Dha = C=C(N)C(=O)O

How the values were obtained:
[1] = test system: selected Gram-positive human gut commensals; assay: MIC assay against the panel of Gram-positive human gut commensals; type: cell-based; settings: commensal panel, Figure 3F-M; anaerobic
Excerpt: (§1) Antibiotic treatment may result in collateral damage to commensal bacteria in the human microbiome, leading to dysbiosis and susceptibility to various diseases.[44] How lantibiotics impact Gram-positive commensals from the human gut has remained unclear. Therefore, we performed antimicrobial activity tests of these lantibiotics against selected Gram-positive human gut commensals, most of which belong to the Lachnospiraceae family, one of the most abundant bacterial families in the human gut.[27] In general, human gut commensals were more susceptible to the set of investigated lantibiotics compared to pathogens (Figure 3).
(§2) Elution Buffer (4 M guanidine hydrochloride, 20 mM Tris HCl, pH 7.5 at 25 °C, 100 mM NaCl, 1 M imidazole). Peptides eluted from the Ni resin were concentrated and desalted using 3 kDa Amicon filters (Millipore). For leader peptide removal, the peptide (1:20 trypsin to peptide) was incubated with the trypsin protease in 50 mM Tris-HCl, pH 8 overnight at 37 °C. Lastly, the core peptides were further purified with HPLC using an Agilent 1200 instrument (Agilent) as specified in general methods. About 1.5 mg recombinant peptide was obtained after HPLC purification per […]
(§3) All MIC assays were performed under anaerobic condition. […] Lantibiotics were dissolved in DPBS, and concentrations were determined by BCA assay (Pierce) according to the manufacturer’s protocol. […]

[2] = test system: D. formicigenerans MSK.17.61; assay: MIC assay, anaerobic broth dilution; type: cell-based, Dorea formicigenerans; settings: BHIS, 37 °C, 48 h, 3-fold serial dilution
Excerpt: as §1, §2, §3

B. obeum MSK.18.40 = assay: MIC assay, anaerobic broth dilution; type: cell-based, Blautia obeum; settings: BHIS, 37 °C, 48 h, 3-fold serial dilution
Excerpt: as §1, with “3). […]” for “3).”
(§4) Isolation of human gut commensal bacteria
(§5) Isolation and growth of commensal bacteria was done as previously reported.5 Briefly, fresh donor fecal samples were transferred into an anaerobic chamber (Coy Labs) within 1 h of collection. The anaerobic chamber was maintained using a gas mix consisting of 5% hydrogen, 5% carbon dioxide and 90% nitrogen, and hydrogen was maintained at ~3.0% using an anaerobic gas infuser. […]
as §3

A. hadrus MSK.14.23 = assay: MIC assay, anaerobic broth dilution; type: cell-based, Anaerostipes hadrus; settings: BHIS, 37 °C, 48 h, 3-fold serial dilution
Excerpt: as §1, with “3). […]” for “3).”
as §4, §5, §3

L. monocytogenes 10403s = assay: MIC assay, anaerobic broth dilution; type: cell-based, Listeria monocytogenes; settings: BHIS, 37 °C, 48 h, 3-fold serial dilution
Excerpt: Next, we set out to test the antimicrobial activities of these purified lantibiotics against a panel of Gram-positive bacteria that are representatives of some of the most prevalent human pathogens: VRE, Methicillin-resistant S. aureus USA300 (MRSA), Methicillin-resistant Staphylococcus epidermidis SK135 (MRSE), Listeria monocytogenes 10403S, and Clostridioides difficile VPI10463. We examined the growth of bacteria in a 96-well plate under a concentration gradient of lantibiotics under anaerobic conditions (Figure S2B). […]
For broth cultures, isolates were grown in pre-reduced BHI supplemented with 5 g/L yeast extract (Difco, BD) and 0.1% L-cysteine under anaerobic condition.
Minimal Inhibition Concentration (MIC) assay
All MIC assays were performed under anaerobic condition. Stationary bacterial culture in BHIS (BHI supplemented with 5 g/L yeast extract and 0.1% L-cysteine) were inoculated 1:100 to wells containing 200 µL BHIS in U-bottom 96-well plates. Lantibiotics were dissolved in DPBS, and concentrations were determined by BCA assay (Pierce) according to the manufacturer’s protocol.
Lantibiotic stock solutions were added to wells to reach desired final concentration, with 3-fold serial dilution across rows to create concentration gradients. Bacteria-inoculated wells without lantibiotics served as control. […]

E. ramosum MSK.23.96 = assay: MIC assay, anaerobic broth dilution; type: cell-based, Erysipeloclostridium ramosum; settings: BHIS, 37 °C, 48 h, 3-fold serial dilution
Excerpt: as §1, §2, §3

nisin A (I[Dhb]AI[Dha]LC[Abu]PGCK[Abu]GALMGCNMK[Abu]A[Abu]CHCSIHV[Dha]K; thioether 8-11, 13-19, 23-26, 25-28, 3-7; UniProt P13068 24-57, looked up) [prototypical class I lantibiotic produced by L. lactis, food preservative; commercial nisin A]
antimicrobial activity against human gut commensals (ranking in words) [1]: generally more effective in growth inhibition | nisin A MIC [2]: 0.0110 µM | nisin A MIC (B. obeum MSK.18.40): 0.0110 µM | nisin A MIC (A. hadrus MSK.14.23): 0.0110 µM | nisin A MIC (L. monocytogenes 10403s): 2.67 µM | nisin A MIC (E. ramosum MSK.23.96): 0.889 µM
